Source: ChEMBL document CHEMBL5608163, “Structure modification of anoplin for fighting resistant bacteria” (Eur J Med Chem, 2024)
≈ marks a conversion by molar mass, not a printed value. Square brackets hold non-standard residues; d marks the D form. Peptide text beside a SMILES is read from it. * marks the point of attachment. Pentadecanoyl = CCCCCCCCCCCCCCC(=O)*; NMeI = CC[C@H](C)[C@H](NC)C(=O)O; NMeL = CN[C@@H](CC(C)C)C(=O)O; Undecanoyl = CCCCCCCCCCC(=O)*; Nonanoyl = CCCCCCCCC(=O)*

What was measured:
Staphylococcus aureus [1] = assay: Antibacterial activity against Staphylococcus aureus ATCC 25923 assessed as reduction in bacterial growth incubated for 18 to 24 hrs by broth microdilution method; format: functional; conditions: time 18-24 hrs
Escherichia coli [2] = assay: Antibacterial activity against Escherichia coli ATCC 25922 assessed as reduction in bacterial growth by broth microdilution method; format: functional
Erythrocyte = assay: (§1) Hemolytic activity in mouse Red blood cells incubated for 1 hr by microplate reader assay; format: toxicity, cell-based; conditions: erythrocyte, 1 h
[3] = as §1; format: toxicity, cell-based, Erythrocyte; conditions: red blood cells
Staphylococcus aureus [4] = assay: Antibacterial activity against Staphylococcus aureus ATCC 25923 assessed as reduction in bacterial cell growth measured for 18 hrs by Mueller-Hinton broth based two-fold serial dilution method; format: functional
Bacillus subtilis [5] = assay: Antibacterial activity against Bacillus subtilis ATCC 23857 assessed as reduction in bacterial cell growth measured for 18 hrs by Mueller-Hinton broth based two-fold serial dilution method; format: functional
Escherichia coli [6] = assay: Antibacterial activity against Escherichia coli ATCC 25922 assessed as reduction in bacterial cell growth measured for 18 hrs by Mueller-Hinton broth based two-fold serial dilution method; format: functional
Pseudomonas aeruginosa [7] = assay: Antibacterial activity against Pseudomonas aeruginosa ATCC 27853 assessed as reduction in bacterial cell growth measured for 18 hrs by Mueller-Hinton broth based two-fold serial dilution method; format: functional
Klebsiella pneumoniae = assay: Antibacterial activity against Klebsiella pneumoniae ATCC 700603 assessed as reduction in bacterial cell growth measured for 18 hrs by Mueller-Hinton broth based two-fold serial dilution method; format: functional
Staphylococcus aureus [8] = assay: Antibacterial activity against Staphylococcus aureus ATCC 25923 assessed as reduction in bacterial growth incubated for 18 to 20 hrs by Mueller Hinton broth dilution method; format: functional; conditions: time 18-20 hrs
Bacillus subtilis [9] = assay: Antibacterial activity against Bacillus subtilis ATCC 23857 assessed as reduction in bacterial growth incubated for 18 to 20 hrs by Mueller Hinton broth dilution method; format: functional; conditions: time 18-20 hrs
Escherichia coli [10] = assay: Antibacterial activity against Escherichia coli ATCC 25922 assessed as reduction in bacterial growth incubated for 18 to 20 hrs by Mueller Hinton broth dilution method; format: functional; conditions: time 18-20 hrs
Pseudomonas aeruginosa [11] = assay: Antibacterial activity against Pseudomonas aeruginosa ATCC 27853 assessed as reduction in bacterial growth incubated for 18 to 20 hrs by Mueller Hinton broth dilution method; format: functional; conditions: time 18-20 hrs

SMILES	MIC (Staphylococcus aureus [1]) [µM]	MIC (Escherichia coli [2]) [µM]	HC10 (Erythrocyte) [µM]	HC50 at 1 h [3] [µM]	MIC (Staphylococcus aureus [4]) [µM]	MIC (Bacillus subtilis [5]) [µM]	MIC (Escherichia coli [6]) [µM]	MIC (Pseudomonas aeruginosa [7]) [µM]	MIC (Klebsiella pneumoniae) [µM]	further results
CC[C@H](C)[C@H](NC(=O)[C@H](CCCNC(=N)N)NC(=O)[C@H](CCCCN)NC(=O)[C@H](CC(C)C)NC(=O)[C@H](CC(C)C)NC(=O)CN)C(=O)N[C@@H](CCCCN)C(=O)N[C@H](C(=O)N[C@@H](C)C(=O)N[C@@H](CC(C)C)C(N)=O)[C@@H](C)O (H-GLLKRIKTAL-NH2)	27.9 (≈ 31 µg/mL)	44.1 (≈ 49 µg/mL)								
CC[C@H](C)[C@H](NC(=O)[C@H](CCCNC(=N)N)NC(=O)[C@@H](CCCCN)NC(=O)[C@H](CC(C)C)NC(=O)[C@H](CC(C)C)NC(=O)CN)C(=O)N[C@@H](CCCCN)C(=O)N[C@@H](C(=O)N[C@@H](CC(C)C)C(=O)N[C@@H](CC(C)C)C(N)=O)[C@H](C)O			> 300							
CCCCCCCCCCC(=O)NCC(=O)N[C@@H](CC(C)C)C(=O)N(C)[C@@H](CC(C)C)C(=O)N[C@@H](CCCCN)C(=O)N[C@@H](CCCNC(=N)N)C(=O)N(C)[C@H](C(=O)N[C@@H](CCCCN)C(=O)N[C@H](C(=O)N[C@@H](CC(C)C)C(=O)N[C@@H](CC(C)C)C(N)=O)[C@@H](C)O)[C@@H](C)CC (Undecanoyl-GL[NMeL]KR[NMeI]KTLL-NH2)				> 256	16 (≈ 21.6 µg/mL)	4 (≈ 5.4 µg/mL)	16 (≈ 21.6 µg/mL)	8 (≈ 10.8 µg/mL)	64 (≈ 86.4 µg/mL)	
CC(C)C[C@@H](NC(=O)[C@@H](CC(C)C)NC(=O)[C@@H](CCCCN)NC(=O)[C@@H](CCCCN)NC(=O)[C@@H](Cc1c[nH]c2ccccc12)NC(=O)[C@@H](CCCNC(=N)N)NC(=O)[C@@H](CCCCN)NC(=O)[C@@H](CC(C)C)NC(=O)[C@@H](CC(C)C)NC(=O)[C@H](N)Cc1c[nH]c2ccccc12)C(N)=O			> 200							MIC (Staphylococcus aureus [8]): 16 µM (≈ 22.1 µg/mL); MIC (Bacillus subtilis [9]): 4 µM (≈ 5.53 µg/mL); MIC (Escherichia coli [10]): 8 µM (≈ 11.1 µg/mL); MIC (Pseudomonas aeruginosa [11]): 8 µM (≈ 11.1 µg/mL)
CCCCCCCCC(=O)NCC(=O)N[C@@H](CC(C)C)C(=O)N(C)[C@@H](CC(C)C)C(=O)N[C@@H](CCCCN)C(=O)N[C@@H](CCCNC(=N)N)C(=O)N(C)[C@H](C(=O)N[C@@H](CCCCN)C(=O)N[C@H](C(=O)N[C@@H](CC(C)C)C(=O)N[C@@H](CC(C)C)C(N)=O)[C@@H](C)O)[C@@H](C)CC (Nonanoyl-GL[NMeL]KR[NMeI]KTLL-NH2)				> 256	128 (≈ 169 µg/mL)	8 (≈ 10.6 µg/mL)	128 (≈ 169 µg/mL)	32 (≈ 42.3 µg/mL)	> 128	
CC(C)C[C@@H](NC(=O)[C@@H](CC(C)C)NC(=O)[C@@H](CCCCN)NC(=O)[C@@H](CCCCN)NC(=O)[C@@H](Cc1c[nH]c2ccccc12)NC(=O)[C@@H](Cc1c[nH]c2ccccc12)NC(=O)[C@@H](CCCCN)NC(=O)[C@@H](CC(C)C)NC(=O)[C@@H](CC(C)C)NC(=O)[C@H](N)CCCCN)C(N)=O (H-[dK][dL][dL][dK][dW][dW][dK][dK][dL][dL]-NH2)			> 200							MIC (Staphylococcus aureus [8]): 8 µM (≈ 10.8 µg/mL); MIC (Bacillus subtilis [9]): 4 µM (≈ 5.42 µg/mL); MIC (Escherichia coli [10]): 64 µM (≈ 86.7 µg/mL); MIC (Pseudomonas aeruginosa [11]): 8 µM (≈ 10.8 µg/mL)
CCCCCCCCCCCCCCC(=O)NCC(=O)N[C@@H](CC(C)C)C(=O)N(C)[C@@H](CC(C)C)C(=O)N[C@@H](CCCCN)C(=O)N[C@@H](CCCNC(=N)N)C(=O)N(C)[C@H](C(=O)N[C@@H](CCCCN)C(=O)N[C@H](C(=O)N[C@@H](CC(C)C)C(=O)N[C@@H](CC(C)C)C(N)=O)[C@@H](C)O)[C@@H](C)CC (Pentadecanoyl-GL[NMeL]KR[NMeI]KTLL-NH2)				64	8 (≈ 11.2 µg/mL)	4 (≈ 5.62 µg/mL)	16 (≈ 22.5 µg/mL)	16 (≈ 22.5 µg/mL)	16 (≈ 22.5 µg/mL)	
CC[C@H](C)[C@H](NC(=O)[C@H](CCCNC(=N)N)NC(=O)[C@H](CCCCN)NC(=O)[C@H](CC(C)C)NC(=O)[C@H](CC(C)C)NC(=O)[C@H](C)N)C(=O)N[C@@H](CCCCN)C(=O)N[C@H](C(=O)N[C@@H](CC(C)C)C(=O)N[C@@H](CC(C)C)C(N)=O)[C@@H](C)O (H-ALLKRIKTLL-NH2)	> 18	> 18								
CC[C@H](C)[C@H](NC(=O)[C@H](CCCNC(=N)N)NC(=O)[C@H](CCCCN)NC(=O)[C@H](CC(C)C)NC(=O)[C@H](C)NC(=O)CN)C(=O)N[C@@H](CCCCN)C(=O)N[C@H](C(=O)N[C@@H](CC(C)C)C(=O)N[C@@H](CC(C)C)C(N)=O)[C@@H](C)O (H-GALKRIKTLL-NH2)	> 38.7	> 38.7								
CC[C@H](C)[C@H](NC(=O)[C@H](CCCNC(=N)N)NC(=O)[C@H](CCCCN)NC(=O)[C@H](C)NC(=O)[C@H](CC(C)C)NC(=O)CN)C(=O)N[C@@H](CCCCN)C(=O)N[C@H](C(=O)N[C@@H](CC(C)C)C(=O)N[C@@H](CC(C)C)C(N)=O)[C@@H](C)O (H-GLAKRIKTLL-NH2)	> 34.2	> 34.2								
